Results on nine substances are retold here after patent US9078843B2, “Immunogenic fragments of T-cell receptor constant domains and peptides derived therefrom” (priority 2005, dated 2015).

One assay relates to IgG in sera. The experiment in a line: Antigen microarray, serum IgG binding to TCR gamma constant region peptides. Set-up: species or system human. To be noted: for Antigen Binding (Mean Intensity) IgG: serum 1:5. From the text: (§1) The antigenicity of peptides derived from human T-cell receptor gamma-chain constant region (accession no: AAB63314; SEQ ID NO:173) was essayed using antigen array technology, as detailed below.
(§2) Serum samples: Blood samples were obtained by random availability from 12 healthy adults and from 9 adults newly diagnosed with lung cancer, before treatment. All samples were collected with informed consent and approval of the Helsinki committee of the Sheba Medical Center, Tel Hashomer, Israel. The blood samples were allowed to clot at room temperature. After centrifugation, sera were collected and stored at −20° C.
(§3) Antigen microarray: Antigens diluted in PBS were placed in 384-well plates at a concentration of 1 μg/μl. We used a robotic MicroGrid arrayer with solid spotting pins of 0.2 mm in diameter (BioRobotics, Cambridge, U.K.) to spot the antigens onto ArrayIt SuperEpoxi microarray substrate slides (TeleChem, Sunnyvale, Calif.). the antigens were spotted in replicates of 4, and the microarrays were blocked for 1 h at 37° C. with 1% bovine serum albumin, and incubated under a cover-slip overnight at 4° C. with a 1:5 dilution of the test serum in blocking buffer. The quantitative range of signal intensity of binding to each antigen spot was 0.01-65,000, and this range of detection made it possible to record reliable data with little dilution of test samples. The arrays were then washed and incubated for 1 hour at 37° C. with a 1:500 dilution of detection antibodies. Two detection antibodies were used: a goat anti-human IgG Cy3-conjugated antibody and a goat anti-human IgM Cy5-conjugated antibody, purchased from Jackson ImmunoResearch, West Grove, Pa. The arrays were washed again, spin-dried, and scanned with a ScanArray 4000× scanner (GSI Luminomics, Billerica, Mass.). The results were recorded as TIFF files. Image acquisition by laser and quantification were done as described (Quintana et al., 2004).
(§4) Data preprocessing and background filtering: Antigen reactivity was defined by the mean intensity of the 4 replicates of binding to that antigen on the microarray. We identified positive antibodies in the following way: To establish the minimum level of significant antibody binding, we calculated the mean reactivity level of 32 spots incubated with phosphate buffered saline (PBS) in place of an antigen on each microarray slide. A signal was scored as positive when it expressed intensity greater than the upper limit of the PBS control, which was defined as the mean intensity of the PBS spots plus 2-times the standard deviation. Signal intensity above the PBS background was considered positive antibody binding.
(§5) The presence of IgG and IgM in sera obtained from patients with lung cancer and from healthy controls was determined using the antigen microarray, as detailed above. The results, presented in Table 13, represent the mean reactivity of 12 control subjects and 9 lung cancer subjects.

A further assay relates to IgM in sera. The assay can be described thus: Antigen microarray, serum IgM binding to TCR gamma constant region peptides. More on the design: species or system human. To be noted: serum 1:5.
Excerpt: as §1, §2, §3, §4, §5

Assay [1] deals with draining lymph node cells (LNC). The experiment in a line: T-cell proliferation of lymph node cells from vaccinated rats ([methyl-3H]-thymidine, stimulation index). The class given is cell-based, Lewis rats. To be noted: for proliferative responses of LNC to PPD: LNC from peptide immunized rats; for T-cell responses of immunized rats to the immunizing peptide (immunogenicity): rats vaccinated with the peptide, FIG. 6B. The method, then: Unless otherwise stated, T-cell proliferation assays were performed at day 26 after the induction of AA, when the disease is at its peak, as previously described (Quintana et al 2002). Briefly, popliteal and inguinal lymph node cells (LNC), were cultured in quadruplicates in 200 μl round bottom microtiter wells (Costar Corp., Cambridge, USA) at 2×10^5 cells per well with or without antigen. The T-cell mitogen Concanavalin A (Con A) was used as a positive control for T-cell proliferation. Cultures were incubated for 96 hrs at 37° C. in a humidified atmosphere of 5% CO2. T-cell responses were detected by the incorporation of [methyl-3H]-thymidine (Amersham, Buckinghamshire, UK; 1 μCi/well), which was added to the wells for the last 18 hours. The stimulation index (SI) was computed as the ratio of the mean c.p.m. of antigen- or mitogen-containing wells to control wells cultured with medium alone. The results of T-cell proliferation experiments are shown as SI±SEM, T-cell responses with SI<2 were considered not significant.
To study the immune responses associated with the inhibition of AA by DNA vaccination with pβC1 or pβC2, we analyzed the T-cell responses of immunized rats 26 days after the induction of AA. We stimulated draining lymph node cells (LNC) in vitro with a collective of Mycobacterial antigens known to be associated with AA: HSP65, PPD and Mt176-190. The Mt176-190 peptide contains the 180-188 epitope of HSP65 described by van Eden et al which is recognized by HSP65-specific T-cell clones that can transfer AA (van Eden et al 1985). We also studied the immune response directed to recombinant βC1 and recombinant βC2, or to βC1/2 peptides predicted to bind the MHC class II molecule of the Lewis rat (see Table 1). Glutathione-S-transferase (GST) was included as a control antigen. […] 149 (MED12).
To study the effect of C1/2 vaccination on the immune response to C1/2 peptides and to the target antigens of AA, we vaccinated rats with rβC1 or rβC2, and then induced AA. At day 26, we removed the draining lymph nodes and measured the T-cell proliferative responses to peptides N12 (SEQ ID NO:147), MED12 (SEQ ID NO:149) or C2C (SEQ ID NO:152), or to the Mycobacterial antigens. […] Thus the C1/2 peptides are immunologically dominant.

A further assay has as its system adjuvant arthritis (AA). The experiment in a line: Adjuvant arthritis (AA) after vaccination with recombinant proteins or peptides. The format is in vivo, Lewis rats. Conditions: single ip dose of 100 μg protein or peptide in IFA, AA induced seven days later; FIG. 4. The procedure:
AA was induced as described (Quintana et al 2002), using 1 mg per rat of heat-killed Mt strain H37Ra (Difco). Each experimental and control group contained at least 8 rats. The day of AA induction was designated as day 0, and disease severity was assessed by direct observation of all 4 limbs in each animal. A relative score between 0 and 4 was assigned to each limb, based on the degree of joint inflammation, redness and deformity; thus the maximum possible score for an individual animal was 16 (Quintana et al 2002). The mean AA score (±SEM) is shown for each experimental group. Arthritis was also quantified by measuring hind limb diameter with a caliper. Measurements were taken on the day of the induction of AA and 26 days later (at the peak of AA); the results are presented as the mean±SEM of the difference between the two values for all the animals in each group. The person who scored the disease was blinded to the identity of the groups. Experiments were repeated at least 3 times and produced similar results.
Female Lewis rats were immunized ip with a single dose of 100 μg of peptide or recombinant protein emulsified in IFA.
We studied the immune effects of vaccination with recombinant C1 (rβC1) or C2 (rβC2), or with C1/2-derived peptides (Table 1). Female Lewis rats were immunized with a single ip dose of 100 μg of protein or peptide in IFA, and seven days later AA was induced.

The mark [2] stands for this setting: HEALTHY CONTROLS, mean of 12 subjects.
Setting [3] is: LUNG CANCER, mean of 9 subjects.

For DQEIIFPPIKT [SEQ ID NO:161], the “Antigen Binding (Mean Intensity) IgG” value in the assay on IgG in sera (setting [2]) is given as −147; in the assay on IgG in sera (setting [3]), 846. For the same substance, the “Antigen Binding (Mean Intensity) IgM” value in the assay on IgM in sera (setting [2]) is listed as 86; in the assay with IgM in sera (setting [3]) it was 160.
On the same counts, the results for KPTIFLPSSWLTVPE [SEQ ID NO:164] are −240, −114, −24 and 86.
On to KAGTYLCLLEKFFPDVIKI [SEQ ID NO:158], for which the “Antigen Binding (Mean Intensity) IgG” value with IgG in sera (setting [2]) amounted to 2233; with IgG in sera (setting [3]) it was 2116. For the same substance, the “response of antibodies to the peptide” value in the assay with IgG in sera (antibodies from control subjects) is reported as “responded”. For the same substance, the “Antigen Binding (Mean Intensity) IgM” value in the assay on IgM in sera (setting [2]) is 1753; in the assay with IgM in sera (setting [3]), 2381.
In the case of KEHRCIVDTLLLQL [SEQ ID NO:165], the “Antigen Binding (Mean Intensity) IgG” value in the assay with IgG in sera (setting [2]) is listed as 95; with IgG in sera (setting [3]), 1095. Further, the “Antigen Binding (Mean Intensity) IgM” value with IgM in sera (setting [2]) is recorded as 97; in the assay with IgM in sera (setting [3]) it was 103.
As to “dspkpvtqnisaeawgr (DSPKPVTQNISAEAWGR; listed as Rattus norvegicus) [MED12]”, the “proliferative responses of LNC to PPD” value in assay [1] (FIG. 6A) is listed as “increased proliferative responses”. Further, in assay [1], the “T-cell responses of immunized rats to the immunizing peptide (immunogenicity)” value (shortened to “T-cell responses of immunized rats”) is listed as “significant T-cell responses”. Further, the “severity of the disease (AA score)” value in the assay with adjuvant arthritis (AA) is “significantly decreased”.
As to VVYFAIITCCLLRRTAFCCN [SEQ ID NO:167], the entries for the “Antigen Binding (Mean Intensity) IgG” value in the assay with IgG in sera (setting [2]) and with IgG in sera (setting [3]) were 376 and 1928, respectively. For the same substance, the “Antigen Binding (Mean Intensity) IgM” value with IgM in sera (setting [2]) stood at 548; in the assay with IgM in sera (setting [3]), 512.
On the same counts, the results for AYYMYLLLLLKSVVYFAIIT [SEQ ID NO:166] are 199, 996, 87 and 140.
Take “vtppkvslfepseaeia (VTPPKVSLFEPSEAEIA; listed as Rattus norvegicus) [N12]”: in assay [1] (FIG. 6A), the “proliferative responses of LNC to PPD” value was “increased proliferative responses”. Moreover, the “T-cell responses of immunized rats” value in assay [1] was “significant T-cell responses”. In addition, the “severity of the disease (AA score)” value in the assay with adjuvant arthritis (AA) is recorded as “significantly decreased”.
Turning to “vlvsalvlmamvkkkns (VLVSALVLMAMVKKKNS; listed as Rattus norvegicus) [C2C]”, the “proliferative responses of LNC to PPD” value in assay [1] (FIG. 6A) is “increased proliferative responses”. In assay [1] (LNC from peptide-vaccinated rats, FIG. 6A), the “proliferative responses of LNC to mt180 and HSP65” value is on record as “increased proliferative responses”. In addition, in assay [1], the “T-cell responses of immunized rats” value is reported as “significant T-cell responses”. Moreover, the “severity of the disease (AA score)” value in the assay on adjuvant arthritis (AA) was “significantly decreased”.
